# Target: T1, N-terminal 6His-tagged ROCK2 catalytic domain 11-552 (Homo sapiens, UniProt O75116)
# T1 construct: N-terminal 6His-tagged ROCK2 catalytic domain 11-552; 6His (N); purchased Dundee University, UK; host or cells: baculovirus expression system
# Assay: ROCK2 binding activity: ROCK2 inhibition, ADP-Glo Kinase Assay
# Assay type: biochemical
# Details: 1.25 nM ROCK2, 100 μM long S6 peptide, 20 μM ATP; 1 hour pre-incubation; read-out: ADP-Glo kinase activity assay ROCK2 Category
# Outline: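 1.25 nM baculovirus-expressed ROCK2 pre-incubated 1 h with compound (1% DMSO), then 100 μM long S6 peptide and 20 μM ATP added for 1 h; 50 mM HEPES pH 7.5, 10 mM Mg acetate, 1 mM DTT. ADP-Glo luminescence; IC50 from four-parameter logistic fit.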
# T1 sequence (O75116 11-552): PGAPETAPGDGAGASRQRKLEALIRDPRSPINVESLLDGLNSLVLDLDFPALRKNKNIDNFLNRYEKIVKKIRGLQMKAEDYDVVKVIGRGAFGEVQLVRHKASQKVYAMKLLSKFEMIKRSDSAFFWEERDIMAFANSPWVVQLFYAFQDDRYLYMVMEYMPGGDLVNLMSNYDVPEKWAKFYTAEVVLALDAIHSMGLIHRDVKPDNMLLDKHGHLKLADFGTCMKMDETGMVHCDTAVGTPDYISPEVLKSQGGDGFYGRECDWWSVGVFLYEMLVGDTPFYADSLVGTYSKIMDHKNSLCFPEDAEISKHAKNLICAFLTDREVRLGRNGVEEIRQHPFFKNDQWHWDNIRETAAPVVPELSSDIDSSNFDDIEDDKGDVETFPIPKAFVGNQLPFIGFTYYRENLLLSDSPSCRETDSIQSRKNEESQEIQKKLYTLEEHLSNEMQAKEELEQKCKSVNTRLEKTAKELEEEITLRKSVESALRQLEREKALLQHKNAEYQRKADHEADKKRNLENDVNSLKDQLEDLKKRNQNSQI
row,Compound,IC50
1,CN1CCc2cc(-c3nc(Nc4ccc5[nH]ncc5c4Cl)n(C)n3)ccc2C1 [Example 367],3000 to 10000 nM
2,CCNC(=O)c1ccc(-c2nc(Nc3ccc4[nH]ncc4c3Cl)n(C)n2)c2cccnc12 [Example 373],300 to 3000 nM
3,COc1cc(-c2nc(Nc3ccc4[nH]ncc4c3C3CC3)n(C)n2)cnc1C(=O)NC1CC1 [Example 379],300 to 3000 nM
4,Cn1nc(-c2ccc(C(N)C(F)(F)F)cc2)nc1Nc1ccc2[nH]ncc2c1C1CC1 (stereo not drawn) [Example 384],300 to 3000 nM
5,CCNC(c1ccc(-c2nc(Nc3ccc4[nH]ncc4c3C3CC3)n(C)n2)cc1)C(F)(F)F (stereo not drawn) [Example 386],300 to 3000 nM
6,CCNC(c1ccc(-c2nc(Nc3ccc4[nH]ncc4c3C3CC3)n(C)n2)cc1)C(F)F (stereo not drawn) [Example 388],300 to 3000 nM
7,Cn1nc(-c2ccc3c(c2)CNCC3)nc1Nc1ccc2[nH]ncc2c1C1CC1 [Example 389],3000 to 10000 nM
8,Cn1nc(-c2ccncc2)nc1Nc1ccc2[nH]ncc2c1C1CC1 [Example 392],300 to 3000 nM
9,CCNC(=O)c1ccc(-c2nc(Nc3ccc4[nH]ncc4c3)n(C)n2)cc1C [Example 394],300 to 3000 nM
10,CCNC(=O)c1ccc(-c2nc(Nc3ccc4[nH]ncc4c3)n(C)n2)cc1C(F)(F)F [Example 398],3000 to 10000 nM
11,Cc1cc(OCC(=O)NC(C)C)ccc1-c1nc(Nc2ccc3[nH]ncc3c2)n(C)n1 [Example 401],< 300 nM
12,CC(C)NC(=O)COc1ccc(-c2nc(Nc3ccc4[nH]ncc4c3)n(C)n2)c(C(F)(F)F)c1 [Example 402],< 300 nM
13,CC(C)NC(=O)COc1ccc(-c2nc(Nc3ccc4[nH]ncc4c3)n(C)n2)c(C#N)c1 [Example 403],< 300 nM
14,COc1cc(OCC(=O)NC(C)C)ccc1-c1nc(Nc2ccc3[nH]ncc3c2)n(C)n1 [Example 404],< 300 nM
15,CC(C)NC(=O)COc1ccc(-c2nc(Nc3ccc4[nH]ncc4c3)n(C)n2)c(F)c1 [Example 405],< 300 nM
16,CCNC(=O)c1ccc(-c2nc(Nc3ccc4[nH]ncc4c3)n(C)n2)c(F)c1 [Example 406],< 300 nM
17,CC(C)NC(=O)COc1ccc(-c2nc(Nc3ccc4[nH]ncc4c3)n(C)n2)c(Cl)c1 [Example 407],< 300 nM
18,CCNC(=O)c1ccc(-c2nc(Nc3ccc4[nH]ncc4c3)n(C)n2)c(C(F)(F)F)c1 [Example 408],300 to 3000 nM
19,CCNC(=O)c1cc(F)c(-c2nc(Nc3ccc4[nH]ncc4c3)n(C)n2)cc1F [Example 409],< 300 nM
20,CCNC(=O)c1c(F)cc(-c2nc(Nc3ccc4[nH]ncc4c3)n(C)n2)cc1F [Example 410],300 to 3000 nM
21,CC(C)NC(=O)COc1ccc(-c2nc(Nc3ccc4[nH]ncc4c3)n(C)n2)c(F)c1F [Example 411],< 300 nM
22,CCNC(=O)c1ccc(-c2nc(Nc3ccc4[nH]ncc4c3)n(C)n2)cc1C#N [Example 412],< 300 nM
23,CCNC(=O)c1cc(F)c(-c2nc(Nc3ccc4[nH]ncc4c3)n(C)n2)c(F)c1 [Example 413],< 300 nM
24,CN1CCc2cc(-c3nc(Nc4ccc5[nH]ncc5c4)n(C)n3)ccc2C1 [Example 414],3000 to 10000 nM
25,CC(C)NC(=O)COc1c(F)cc(-c2nc(Nc3ccc4[nH]ncc4c3)n(C)n2)cc1F [Example 415],< 300 nM

row,Compound,IC50
1,CC(C)NC(=O)COc1cc(F)c(-c2nc(Nc3ccc4[nH]ncc4c3)n(C)n2)cc1F [Example 416],< 300 nM
2,Cc1cc(-c2nc(Nc3ccc4[nH]ncc4c3C)n(C)n2)ccc1C(=O)NCC(F)(F)F [Example 417],< 300 nM
3,Cc1c(Nc2nc(-c3ccc(C(=O)NCC(F)(F)F)nc3)nn2C)ccc2[nH]ncc12 [Example 418],300 to 3000 nM
4,Cc1c(Nc2nc(-c3ccc(C(=O)NCC(F)(F)F)c(F)c3F)nn2C)ccc2[nH]ncc12 [Example 419],< 300 nM
5,COc1cc(-c2nc(Nc3ccc4[nH]ncc4c3C)n(C)n2)cnc1C(=O)NC1CC1 [Example 420],300 to 3000 nM
6,Cc1c(Nc2nc(-c3ccc(C(=O)NCC(F)(F)F)cc3)nn2C)ccc2[nH]ncc12 [Example 421],< 300 nM
7,Cc1c(Nc2nc(-c3ccc(C(N)C(F)(F)F)cc3)nn2C)ccc2[nH]ncc12 (stereo not drawn) [Example 422],> 10000 nM
8,CCc1c(Nc2nc(-c3ccc(C(=O)NCC(F)(F)F)cc3)nn2C)ccc2[nH]ncc12 [Example 423],< 300 nM
9,CCc1c(Nc2nc(-c3ccc(C(=O)NCC(F)(F)F)c(C)c3)nn2C)ccc2[nH]ncc12 [Example 424],< 300 nM
10,CC(C)c1c(Nc2nc(-c3ccc(C(=O)NCC(F)(F)F)cc3)nn2C)ccc2[nH]ncc12 [Example 425],300 to 3000 nM
11,C=Cc1c(Nc2nc(-c3ccc(C(=O)NCC)cc3)nn2C)ccc2[nH]ncc12 [Example 426],< 300 nM
12,Cc1n[nH]c2ccc(Nc3nc(-c4ccc(C(=O)NCC(F)(F)F)cc4)nn3C)cc12 [Example 427],< 300 nM
13,Cn1nc(-c2ccc(C(=O)NCC(F)(F)F)cc2)nc1Nc1ccc2[nH]nc(F)c2c1 [Example 428],< 300 nM
14,COc1cc(-c2nc(Nc3ccc4[nH]nc(Cl)c4c3)n(C)n2)ccc1C(=O)NCC(F)(F)F [Example 429],< 300 nM
15,Cn1nc(-c2ccc(C(=O)NCC(F)(F)F)cc2)nc1Nc1ccc2[nH]nc(Cl)c2c1 [Example 430],< 300 nM
16,COc1cc(-c2nc(Nc3cc4cn[nH]c4cc3F)n(C)n2)ccc1C(=O)NC(C)(C)C [Example 432],3000 to 10000 nM
17,COc1cc(-c2nc(Nc3cnc4[nH]ncc4c3)n(C)n2)ccc1OCC(=O)NC(C)C [Example 433],300 to 3000 nM
18,COc1cc(-c2nc(Nc3ccc4[nH]ncc4c3Cl)n(CCN3CCOCC3)n2)ccc1OCC(=O)NC(C)C [Example 434],< 300 nM
19,Cc1cc(-c2nc(Nc3ccc4[nH]ncc4c3Cl)n(CC(C)C)n2)ccc1C(=O)NCC(F)(F)F [Example 435],< 300 nM
20,COc1cc(-c2nc(Nc3ccc4[nH]ncc4c3Cl)n(CC(C)C)n2)ccc1OCC(=O)NC(C)C [Example 436],< 300 nM
21,COc1cc(-c2nc(Nc3ccc4[nH]ncc4c3Cl)n(CC(C)C)n2)ccc1C(=O)NCC(F)(F)F [Example 437],< 300 nM
22,COCCn1nc(-c2ccc(C(=O)NCC(F)(F)F)cc2)nc1Nc1ccc2[nH]ncc2c1C1CC1 [Example 438],< 300 nM
23,COCCn1nc(-c2ccc(C(=O)NCC(F)(F)F)c(OC)c2)nc1Nc1ccc2[nH]ncc2c1C1CC1 [Example 439],< 300 nM
24,COCCn1nc(-c2ccc(C(=O)NC3CC3)cc2)nc1Nc1ccc2[nH]ncc2c1C1CC1 [Example 440],< 300 nM
25,CCn1nc(-c2ccc(C(=O)NCC(F)(F)F)c(OC)c2)nc1Nc1ccc2[nH]ncc2c1C1CC1 [Example 441],< 300 nM

# Now from value to molecule:
row,IC50,Compound
1,< 300 nM,Cn1nc(-c2ccc3c(c2)CCNC3=O)nc1Nc1ccc2[nH]ncc2c1Cl [Example 364]
2,< 300 nM,COc1cc(-c2nc(Nc3ccc4[nH]ncc4c3Cl)n(C)n2)ccc1C(=O)NC1CNCC1(F)F (stereo not drawn) [Example 365]
3,< 300 nM,Cc1cc(-c2nc(Nc3ccc4[nH]ncc4c3Cl)n(C)n2)ccc1C(=O)NCC(F)(F)F [Example 366]
4,< 300 nM,CC(C)NC(=O)COc1c(F)cc(-c2nc(Nc3ccc4[nH]ncc4c3Cl)n(C)n2)cc1F [Example 368]
5,< 300 nM,CC(C)NC(=O)COc1cc(F)c(-c2nc(Nc3ccc4[nH]ncc4c3Cl)n(C)n2)cc1F [Example 369]
6,< 300 nM,CCNC(=O)c1ccc(-c2nc(Nc3ccc4[nH]ncc4c3Cl)n(C)n2)cn1 [Example 370]
7,< 300 nM,Cn1nc(-c2ccc3c(c2)CCN(C(=O)C(C)(C)C)C3)nc1Nc1ccc2[nH]ncc2c1Cl [Example 371]
8,< 300 nM,Cn1nc(-c2ccc3c(c2)CCN(CC(F)(F)F)C3)nc1Nc1ccc2[nH]ncc2c1Cl [Example 372]
9,< 300 nM,Cn1nc(-c2ccc(CNS(=O)(=O)c3cccc(Cl)c3)cc2)nc1Nc1ccc2[nH]ncc2c1Cl [Example 374]
10,< 300 nM,COC(=O)c1ccc(-c2nc(Nc3ccc4[nH]ncc4c3C3CC3)n(C)n2)cc1OC [Example 375]
11,< 300 nM,COc1cc(-c2nc(Nc3ccc4[nH]ncc4c3C3CC3)n(C)n2)ccc1C(=O)NC1CCN(CC(F)(F)F)C1 (stereo not drawn) [Example 376]
12,< 300 nM,Cn1nc(-c2ccc3c(c2)CCNC3=O)nc1Nc1ccc2[nH]ncc2c1C1CC1 [Example 377]
13,< 300 nM,Cn1nc(-c2ccc(C(=O)NCC(F)(F)F)nc2)nc1Nc1ccc2[nH]ncc2c1C1CC1 [Example 378]
14,< 300 nM,Cn1nc(-c2ccc(C(=O)NC3CC3)c(F)c2)nc1Nc1ccc2[nH]ncc2c1C1CC1 [Example 380]
15,< 300 nM,Cn1nc(-c2ccc3c(c2)COC3=O)nc1Nc1ccc2[nH]ncc2c1C1CC1 [Example 381]
16,< 300 nM,COc1cc(-c2nc(Nc3ccc4[nH]ncc4c3C3CC3)n(C)n2)ccc1C(=O)NC1CC1 [Example 383]
17,< 300 nM,Cn1nc(-c2ccc(CNS(C)(=O)=O)cc2)nc1Nc1ccc2[nH]ncc2c1C1CC1 [Example 385]
18,< 300 nM,CCNC(=O)c1ccc(-c2nc(Nc3ccc4[nH]ncc4c3C3CC3)n(C)n2)cc1F [Example 387]
19,< 300 nM,Cn1nc(-c2ccc(-c3ccccn3)cc2)nc1Nc1ccc2[nH]ncc2c1C1CC1 [Example 390]
20,< 300 nM,CCC(=O)N1CCc2cc(-c3nc(Nc4ccc5[nH]ncc5c4C4CC4)n(C)n3)ccc2C1 [Example 391]
21,< 300 nM,CCNC(=O)c1ccc(-c2nc(Nc3ccc4[nH]ncc4c3)n(C)n2)c(OC)c1 [Example 395]
22,< 300 nM,Cc1cc(-c2nc(Nc3ccc4[nH]ncc4c3)n(C)n2)ccc1OCC(=O)NC(C)C [Example 396]
23,< 300 nM,CC(C)NC(=O)COc1ccc(-c2nc(Nc3ccc4[nH]ncc4c3)n(C)n2)cc1C(F)(F)F [Example 397]
24,< 300 nM,CCNC(=O)c1ccc(-c2nc(Nc3ccc4[nH]ncc4c3)n(C)n2)c(C)c1 [Example 399]
25,< 300 nM,CC(C)NC(=O)COc1ccc(-c2nc(Nc3ccc4[nH]ncc4c3)n(C)n2)cc1C#N [Example 400]

# — patent publication US11497751B2, “Modulators of Rho-associated protein kinase” (Redx Pharma PLC, priority 2018, dated 2022)
